System: serum GH-level
Experiment: TEST I: depression of serum GH-levels in the rat (GH-secretion inhibiting activity)
Format: in vivo
Settings: male rats under Nembutal narcosis, s.c., activity at 60 minutes, serum GH by radio-immuno-assay
Procedure: This test (TEST I) is carried out employing male rats under Nembutal narcosis. The test-substance is administered at varying, logarithmically staggered doses employing at least 4 rats per dose. The rats are decapitated 60 minutes after administration, the blood is collected and the serum GH-level determined by radio-immuno-assay.
The above test may be adapted to determine effectiveness over prolonged periods of time, e.g. by decapitating 6 or 18 hours after administration. "Polypeptides of Type-T" as hereinbefore defined may be shown to be active in the above described test method when administered at dosages in the aforesaid range, over longer periods of time, e.g. up to 18 hours.

C[C@H](N)C(=O)NCC(=O)N[C@H]1CSSC[C@@H](C(=O)O)NC(=O)[C@H](CO)NC(=O)[C@H]([C@@H](C)O)NC(=O)[C@H](Cc2ccccc2)NC(=O)[C@H]([C@@H](C)O)NC(=O)[C@H](CCCCN)NC(=O)[C@H](Cc2c[nH]c3ccccc23)NC(=O)[C@H](Cc2ccccc2)NC(=O)[C@H](Cc2ccccc2)NC(=O)[C@H](CC(N)=O)NC(=O)[C@H](CCCCN)NC1=O [somatostatin]
ID50 in TEST I (amount of compound required to effect 50% reduction of the GH-level compared with untreated controls): 0.093 mg/kg
